The values below come from US20170014375A1, “PHARMACEUTICAL COMPOSITION COMPRISING EFFECTIVE DOSE OF POMIFERIN FOR TREATING CANCERS” (Macau University of Science and Technology, priority 2015, published 2017).

In assay [1] the test system is MCF-7 (human breast cancer) cells. In words: MTT cytotoxicity assay, MCF-7. Format: cell-based. The note with it: MCF7, 72 h, MCF-7 (Breast), 3 days, read-out: Means of IC50. As for the experimental part:
(§1) Pomiferin is dissolved in DMSO at a final concentration of 100 mmol/L and stored at −20° C. Cytotoxicity is assessed using the 3-(4,5-dimethylthiazol-2-yl)-2,5-diphenyltetrazolium bromide assay. 4000-8000 HeLa (human cervical cancer), MCF-7 (human breast cancer), HepG2 and Hep3B (human liver cancer), H1299 and A549 (human lung cancer), LNCap (human prostate cancer) and LLC-1 (mouse Lewis lung carcinoma) cells are seeded on 96-well plates per well. After overnight pre-incubation, the cells are exposed to different concentrations of pomiferin ([…]) for 3 days. Subsequently, 10 μL of MTT reagents is added to each well and incubated at 37° C. for 4 hours followed by the addition of 100 μL solubilization buffer (10% SDS in 0.01 mol/L HCl) and overnight incubation. Absorbance at 585 nm is determined from each well the next day. The percentage of cell viability is calculated using the following formula: Cell viability (%)=Cells number treated/Cells number DMSO control×100. Data are obtained from three independent experiments.
On the technique in general: Tetrazolium dyes change colour on reduction, which living cells bring about.

Assay [2] deals with A549 (human lung cancer) cells. In words: MTT cytotoxicity assay, A549. Format: cell-based. The following applies: 72 h, 3 days, read-out: Means of IC50. As for the experimental part: as §1
The test system of assay [3] is H1299 (human lung cancer) cells. In words: MTT cytotoxicity assay, H1299. Format: cell-based. The note with it: NCI-H1299, 72 h, 3 days, read-out: Means of IC50. As for the experimental part:
as §1

Assay [4] has as its system drug-resistant HCT-116 p53−/− colon cancer cells. Kind of assay: Annexin V/PI flow cytometry cell death, HCT-116 p53−/−. Format: cell-based. The following applies: 10 μM pomiferin alone, 24 h, FIGS. 9A & B. As for the experimental part: (§2) Cell death is measured using an annexin V staining kit (BD Biosciences, San Jose, Calif., USA). Briefly, drug-resistant HCT-116 p53−/− deficient colon cancer cells are treated with the 10 μM pomiferin in the presence or absence of 5 mM autophagic inhibitor 3-MA or 10 M calcium chelator BAPTA/AM for 24 h. Cells are then harvested and analysed by multiparametric flow cytometry using FITC-Annexin V and Propidium iodide staining (BD Biosciences, San Jose, Calif., USA) according to the manufacturer's instructions. Flow cytometry is then carried out using a FACSCalibur flow cytometer (BD Biosciences, San Jose, Calif., USA). Data acquisition and analysis is performed with CellQuest (BD Biosciences, San Jose, Calif., USA). Data are obtained from three independent experiments.
A general note: In flow cytometry, cells or beads pass a laser one at a time.

The test system of assay [5] is Atg7 wild-type (Atg7+/+) mouse embryonic fibroblasts. In words: Annexin V/PI flow cytometry cell death, Atg7+/+ MEFs. Format: cell-based. The following applies: 2 μM, 24 h, FIG. 6B. As for the experimental part:
as §2, with “viability” for “death”, “Atg7 wild-type (Atg7+/+ or Atg7-wt) and Atg7” for “drug-resistant HCT-116 p53−/−”, “(Atg7−/− or Atg7-ko) mouse embryonic fibroblasts (MEFs)” for “colon cancer cells”, “2” for “10”, “pomiferin” for “pomiferin in the presence or absence of 5 mM autophagic inhibitor 3-MA or 10 M calcium chelator BAPTA/AM”

Assay [6] deals with Hep3B, HepG2, H1299, MCF-7, A549 cancer cells and normal human hepatocyte (LO2). Kind of assay: Endogenous LC3 puncta immunofluorescence in cancer and normal cells. Format: cell-based. The following applies: 10 μM, FIG. 2. As for the experimental part: The detection of endogenous LC3 puncta formation is conducted using immunofluorescence staining method as described below. In brief, pomiferin-treated cancer cells (Hep3B, HepG2, H1299, MCF-7 and A549) or normal human hepatocyte (LO2) on cover slips are fixed with 4% paraformaldehyde (Sigma) for 20 min at room temperature and then rinsed with PBS. Immerse coverslips in methanol at room temperature for 2 min. After ishing with PBS, the cells are then incubated with anti-LC3 (1:200) in TBST (100 mM Tris HCl, pH 7.5, 150 mM NaCl, 0.05% Tween 20 and 5% BSA) overnight at 4. […] The coverslips are then mounted with FluorSave™ mounting media (Calbiochem, San Diego, Calif., USA) for fluorescence imaging and localization of LC3 autophagosomes are captured under the API Delta Vision Live-cell Imaging System (Applied Precision Inc., GE Healthcare Company, Washington, USA). To quantify autophagy, guidelines are followed to monitor autophagy^20, the percentage of cells with punctuate LC3 immunofluorescence staining is calculated by counting the number of the cells showing the punctuate pattern of LC3 fluorescence (>10 dots/cell) in immunofluorescence positive cells over the total number of cells in the same field. A minimum of 1000 cells from randomly selected fields are scored.

The subject of the next assay is HeLa cells. Kind of assay: Cytosolic calcium detection by flow cytometry (Fluo-3). Format: cell-based, human. The following applies: 10 μM, 10 min to 4 h, FIG. 4A. The protocol:
Changes in intracellular free calcium are measured by a fluorescent dye, Fluo-3, as described previously^21. Briefly, HeLa cells are washed twice with MEM medium after pomiferin treatment (10 μM) for various times (10 min, 0.5 h, 1 h, 2 h, 4 h). Then cell suspensions are incubated with 5 μM Fluo-3 at 37° C. for 30 min. Then the cells are washed twice with HBSS. After re-suspended cell samples are subjected to FACS analysis, at least 10,000 events are analyzed.

pIC50: −log10 of the molar value.

In general, pIC50 refers to −log10 of the IC50, conventionally taken in molar units. Turning to `CC(C)=CCc1c2c(c3occ(-c4ccc(O)c(O)c4)c(=O)c3c1O)C=CC(C)(C)O2` [pomiferin], the pIC50 was 4.72 in assay [1], 4.69 in assay [2] and 4.79 in assay [3]. Also, the “cell death (in words)” value in assay [4] is given as “significantly induced cell death”; in assay [5], “markedly induce cell death”. In assay [6], the TRITC-LC3 puncta formation result was “induces TRITC-LC3 puncta formation in all tested cancer and normal cells”. The cytosolic calcium level result in the assay on HeLa cells is recorded as “increase the cytosolic calcium level in a time dependent manner”.
